# Results: patent publication US12673947B2 (Cytosinlab Therapeutics Co., Ltd., priority 2020, dated 2026)
# Columns and labels:
# FLT3 = target: T1, FLT3 (Homo sapiens, UniProt P36888); assay: FLT3 kinase in vitro inhibitory activity experiment (Caliper mobility shift, conversion rate); type: biochemical; settings: IC50 class, read-out: Enzyme activity FLT3
# T1 construct: purchased Carna 08-145
# T1 sequence (P36888 27-993): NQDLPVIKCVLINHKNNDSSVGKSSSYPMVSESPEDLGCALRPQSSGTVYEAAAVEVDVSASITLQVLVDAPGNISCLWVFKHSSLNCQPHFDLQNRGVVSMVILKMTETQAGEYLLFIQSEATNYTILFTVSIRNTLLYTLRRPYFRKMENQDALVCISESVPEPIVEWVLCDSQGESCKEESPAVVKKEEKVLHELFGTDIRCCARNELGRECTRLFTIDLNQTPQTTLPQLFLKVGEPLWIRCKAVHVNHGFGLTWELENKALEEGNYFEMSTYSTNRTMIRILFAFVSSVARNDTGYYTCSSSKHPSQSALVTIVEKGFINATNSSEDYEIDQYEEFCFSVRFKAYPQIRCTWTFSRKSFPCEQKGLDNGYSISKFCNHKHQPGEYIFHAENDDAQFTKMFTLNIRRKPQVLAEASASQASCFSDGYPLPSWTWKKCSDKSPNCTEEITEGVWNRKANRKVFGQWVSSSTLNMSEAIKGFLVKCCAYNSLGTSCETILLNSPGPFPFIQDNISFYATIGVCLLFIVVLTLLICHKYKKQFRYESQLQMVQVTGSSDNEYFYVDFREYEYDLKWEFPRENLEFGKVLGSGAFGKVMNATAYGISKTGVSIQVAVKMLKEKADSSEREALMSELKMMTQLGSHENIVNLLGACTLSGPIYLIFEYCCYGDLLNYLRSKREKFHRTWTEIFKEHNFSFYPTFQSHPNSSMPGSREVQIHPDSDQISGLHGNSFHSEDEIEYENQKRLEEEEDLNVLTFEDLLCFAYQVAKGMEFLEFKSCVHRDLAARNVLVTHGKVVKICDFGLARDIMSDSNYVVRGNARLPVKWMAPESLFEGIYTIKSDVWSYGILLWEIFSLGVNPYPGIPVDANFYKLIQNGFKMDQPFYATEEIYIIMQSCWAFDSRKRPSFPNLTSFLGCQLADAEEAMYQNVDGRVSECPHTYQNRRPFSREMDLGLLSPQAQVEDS
# In short: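 Tested in single wells as ten 3-fold dilutions of a 1 μM initial stock. Compound and FLT3 stood 10 min at room temperature; ATP with Kinase substrate 2 was then added for 30 min at room temperature and the reaction stopped. Conversion was measured by Caliper mobility shift, and inhibition was normalised to control-well conversion.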
# MV4;11 cells = assay: MV4;11 in vitro inhibition of proliferation assay (CellTiter-Glo, 72 hours); type: cell-based; settings: Homo sapiens, MV4-11, 72 h, IC50 class, read-out: Inhibitory activity of cell proliferation MV4;11
# In short: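 IC50 came from four-parameter fitting of inhibition rates, based on CellTiter-Glo luminescence after 72 hours at 37° C. Each well held 2000 MV4;11 cells grown in IMDM with 10% serum. Compounds formed a nine-point, threefold DMSO series starting at 10 uM, tested in triplicate at 0.3% final DMSO.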
SMILES,IC50 (FLT3),IC50 (MV4;11 cells)
[2H]C([2H])([2H])C([2H])(N1CCC(n2cc(-c3cnc(N)c4nc(CC)c(N[C@@H]5CC[C@H](O)C5)nc34)cn2)CC1)C([2H])([2H])[2H] [Compound 222],≤ 10 nM,≤ 10 nM
CCc1nc2c(N)ncc(-c3cnn(C4CCN(C)CC4)c3)c2nc1N[C@H]1CCOC1 [Compound 223],≤ 10 nM,≤ 10 nM
CCc1nc2c(N)ncc(-c3cnn(C4CCN(CC)CC4)c3)c2nc1N[C@H]1CCOC1 [Compound 224],≤ 10 nM,≤ 10 nM
CCc1nc2c(N)ncc(-c3cnn(C4CCN(C(C)C)CC4)c3)c2nc1N[C@H]1CCOC1 [Compound 225],≤ 10 nM,≤ 10 nM
CCc1nc2c(N)ncc(-c3cnn(C4CCN(C(CC)CC)CC4)c3)c2nc1N[C@H]1CCOC1 [Compound 226],≤ 10 nM,≤ 10 nM
CCc1nc2c(N)ncc(-c3cnn(C4CCN(C(C)CC)CC4)c3)c2nc1N[C@H]1CCOC1 (stereo partly drawn) [Compound 227],≤ 10 nM,≤ 10 nM
CCc1nc2c(N)ncc(-c3cnn(C4CCN(C5CC5)CC4)c3)c2nc1N[C@H]1CCOC1 [Compound 228],≤ 10 nM,10 to 100 nM
"CCc1nc2c(N)ncc(-c3cnn(C4CCN(C(CC)CC)CC4)c3)c2nc1NC1CCOCC1 [Compound 232, 3-Ethyl-8-(1-(1-(pent-3-yl)piperidin-4-yl)-1H-pyrazol-4-yl)-N2-(tetrahydro-2H-pyran-4-yl)pyridino [3,4-b]pyrazine-2,5-diamine]",≤ 10 nM,≤ 10 nM
CCc1nc2c(N)ncc(-c3cnn(C4CCN(CC(C)(C)O)CC4)c3)c2nc1NC1CCOCC1 [Compound 233],≤ 10 nM,≤ 10 nM
CCc1nc2c(N)ncc(-c3cnn(C4CCN(C(C)C)CC4)c3)c2nc1NC1CCOCC1 [Compound 234],≤ 10 nM,≤ 10 nM
CCc1nc2c(N)ncc(-c3cnn(C4CCN(C5CCN(CC)CC5)CC4)c3)c2nc1NC1CCOCC1 [Compound 235],≤ 10 nM,≤ 10 nM
CCc1nc2c(N)ncc(-c3cnn(C4CCN(C5CCN(C(C)C)CC5)CC4)c3)c2nc1NC1CCOCC1 [Compound 236],≤ 10 nM,10 to 100 nM
CCc1nc2c(N)ncc(-c3cnn(C4CCN(C5CCOCC5)CC4)c3)c2nc1NC1CCOCC1 [Compound 237],≤ 10 nM,10 to 100 nM
CCc1nc2c(N)ncc(-c3cnn(C4CCN(C5COC5)CC4)c3)c2nc1NC1CCOCC1 [Compound 238],≤ 10 nM,10 to 100 nM
CCc1nc2c(N)ncc(-c3cnn(C4CCN(C5CCN(CCO)CC5)CC4)c3)c2nc1NC1CCOCC1 [Compound 239],≤ 10 nM,10 to 100 nM
CCc1nc2c(N)ncc(-c3cnn(C4CCN(C5CCN(CCOC)CC5)CC4)c3)c2nc1NC1CCOCC1 [Compound 240],≤ 10 nM,10 to 100 nM
CCc1nc2c(N)ncc(-c3cnn(C4CCN(C5CCN(CC(C)C)CC5)CC4)c3)c2nc1NC1CCOCC1 [Compound 241],≤ 10 nM,10 to 100 nM
CCc1nc2c(N)ncc(-c3cnn(C4CCN(C5CN(C)C5)CC4)c3)c2nc1NC1CCOCC1 [Compound 242],≤ 10 nM,10 to 100 nM
CCc1nc2c(N)ncc(-c3cnn(C4CCN(C5CCN(C6CC6)CC5)CC4)c3)c2nc1NC1CCOCC1 [Compound 243],≤ 10 nM,≤ 10 nM
CCc1nc2c(N)ncc(-c3cnn(C4CCN(C5CCN(CC)CC5)CC4)c3)c2nc1N[C@H]1CCOC1 [Compound 244],≤ 10 nM,10 to 100 nM
CCc1nc2c(N)ncc(-c3cnn(C4CCN(C5CCN(CC)CC5)CC4)c3)c2nc1N[C@@H]1CC[C@H](O)C1 [Compound 245],≤ 10 nM,≤ 10 nM
"CCc1nc2c(N)ncc(-c3cnn(C4CCN(C5CCN(CC)CC5)CC4)c3)c2nc1NC1CCCC(O)C1 (stereo not drawn) [Compound 246, 3-((5-amino-3-ethyl-8-(1-(1′-ethyl-[1,4′-bipiperidine]-4-yl)-1H-pyrazol-4-yl)pyridino[3,4-b]pyrazine-2-yl)amino)cyclohexan-1-ol]",≤ 10 nM,≤ 10 nM
CCc1nc2c(N)ncc(-c3cnn(C4CCN(C5CCN(C)CC5)CC4)c3)c2nc1NC1CCOC1 (stereo not drawn) [Compound 247],≤ 10 nM,10 to 100 nM

SMILES,IC50 (FLT3),IC50 (MV4;11 cells)
CCc1nc2c(N)ncc(-c3cnn(C4CCN(C5CCN(C)CC5)CC4)c3)c2nc1N[C@H]1CCOC1 [Compound 248],≤ 10 nM,10 to 100 nM
CCc1nc2c(N)ncc(-c3cnn(C4CCN(C5CCN(C)CC5)CC4)c3)c2nc1N[C@@H]1CC[C@H](O)C1 [Compound 249],≤ 10 nM,≤ 10 nM
CCc1nc2c(N)ncc(-c3ccc(N4CCC(N5CCN(C)CC5)CC4)c(OC)c3)c2nc1N[C@@H]1CCOC1 [Compound 251],≤ 10 nM,10 to 100 nM
CCc1nc2c(N)ncc(-c3ccc(N4CCC(N5CCN(C)CC5)CC4)c(OC)c3)c2nc1N[C@H]1CCOC1 [Compound 252],≤ 10 nM,10 to 100 nM
CCc1nc2c(N)ncc(-c3ccc(N4CCC(N5CCN(CC)CC5)CC4)c(OC)c3)c2nc1N[C@@H]1CC[C@H](O)C1 [Compound 253],≤ 10 nM,≤ 10 nM
CCc1nc2c(N)ncc(-c3ccc(N4CCC(N5CCN(C)CC5)CC4)c(OC)c3)c2nc1N[C@@H]1CCC[C@H](O)C1 [Compound 257],≤ 10 nM,≤ 10 nM
CCc1nc2c(N)ncc(-c3cnn(C4CCN(C(C)C)CC4)c3)c2nc1N[C@@H]1CCC[C@H](O)C1 [Compound 260],≤ 10 nM,≤ 10 nM
CCc1nc2c(N)ncc(-c3cnn(C4CCN(C)CC4)c3)c2nc1N1CCC(O)C1 (stereo not drawn) [Compound 261],≤ 10 nM,10 to 100 nM
CCc1nc2c(N)ncc(-c3ccc(N4C[C@@H](C)O[C@@H](C)C4)c(OC)c3)c2nc1N[C@@H]1CC[C@H](O)C1 [Compound 265],≤ 10 nM,10 to 100 nM
CCc1nc2c(N)ncc(-c3ccc(N4CC5CCC(C4)O5)c(OC)c3)c2nc1N[C@@H]1CC[C@H](O)C1 [Compound 266],≤ 10 nM,10 to 100 nM
CCc1nc2c(N)ncc(-c3ccc(N4C[C@H](C)O[C@@H](C)C4)c(OC)c3)c2nc1N[C@@H]1CC[C@H](O)C1 [Compound 267],≤ 10 nM,10 to 100 nM
CCc1nc2c(N)ncc(-c3ccc(N4CCC(N5CCN(C)CC5)CC4)c(C(F)F)c3)c2nc1NC1CCOCC1 [Compound 268],≤ 10 nM,10 to 100 nM
"CCc1nc2c(N)ncc(-c3cnn(-c4ncncc4C)c3)c2nc1N[C@@H]1CC[C@H](O)C1 [Compound 269, (1S,3R)-3-((5-amino-3-ethyl-8-(1-(5-methylpyrimidin-4-yl)-1H-pyrazol-4-yl)pyridino[3,4-b]pyrazin-2-yl)amino)cyclopentan-1-ol]",≤ 10 nM,≤ 10 nM
CCc1nc2c(N)ncc(-c3cnn(-c4cc(C)nc(C)n4)c3)c2nc1N[C@@H]1CC[C@H](O)C1 [Compound 270],≤ 10 nM,10 to 100 nM
CCc1nc2c(N)ncc(-c3cnn(-c4cccc(C)n4)c3)c2nc1N[C@@H]1CC[C@H](O)C1 [Compound 271],≤ 10 nM,10 to 100 nM
CCc1nc2c(N)ncc(-c3cnn(-c4ccnc(C)c4)c3)c2nc1N[C@@H]1CC[C@H](O)C1 [Compound 272],≤ 10 nM,≤ 10 nM
CCc1nc2c(N)ncc(-c3cnn(-c4ccn(C(C)C)c(=O)c4)c3)c2nc1N[C@@H]1CC[C@H](O)C1 [Compound 273],≤ 10 nM,≤ 10 nM
CCc1nc2c(N)ncc(-c3cnn(-c4ccnc(C(F)(F)F)n4)c3)c2nc1N[C@@H]1CC[C@H](O)C1 [Compound 274],≤ 10 nM,10 to 100 nM
CCc1nc2c(N)ncc(-c3cnn(-c4ccc(OC(C)C)nc4)c3)c2nc1N[C@@H]1CC[C@H](O)C1 [Compound 275],≤ 10 nM,10 to 100 nM
CCc1nc2c(N)ncc(-c3cnn(-c4ccc(C(C)(C)O)cn4)c3)c2nc1N[C@@H]1CC[C@H](O)C1 [Compound 276],≤ 10 nM,≤ 10 nM
CCc1nc2c(N)ncc(-c3cnn(-c4ccc(C5CCCCC5)cc4)c3)c2nc1N[C@@H]1CC[C@H](O)C1 [Compound 277],10 to 100 nM,100 to 500 nM
CCc1nc2c(N)ncc(-c3cnn(-c4ccc(C5CCNCC5)cc4)c3)c2nc1N[C@@H]1CC[C@H](O)C1 [Compound 278],≤ 10 nM,≤ 10 nM
